ChEMBL document CHEMBL1201862, “PubChem BioAssay data set” (2004)
The source made the active and inactive calls. Rule as the data show it, for most assays here: actives have a measured EC50 and inactives only a lower limit.

Columns and labels:
[1] = system: INS1; assay: beta cell apoptosis inhibitors, cytokine rescue, dose response, luminescence, retest (AID 449756); type: functional, cell-based; conditions: Rattus norvegicus;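 also: cell death triggered by IL-1 beta plus TNF-alpha plus IFN-gamma mixture; protective hits raise ATP signal compared with cytokine alone wells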
[2] = inhibitors of firefly luciferase expression or activity, dose response, H4 neuroglioma cells, luminescence (AID 1990); type: functional, cell-based
[3] = Luminescence Cell-Based Dose Response HTS to Identify Inhibitors of 5'UTR Stem-Loop Driven Prion Protein mRNA Translation in H4 Neuroglioblastoma Cells. [Related pubchem assays: 1827 (Project Summary), 1813 (Primary HTS)]; type: functional
[4] = inhibitors of SNCA 5'UTR-driven reporter translation, confirmation, H4 neuroglioma cells, luminescence (AID 1988); type: functional, cell-based
[5] = target: T1, Corticotropin-releasing factor receptor 2/Corticotropin-releasing factor-binding protein (Homo sapiens, UniProt P24387+Q13324); assay: activators of CRF receptor 2 with binding protein – uHTS hits, confirmation (AID 602473); type: functional; conditions: read-out: EC50_Mean
T1 sequence (Q13324 whole entry): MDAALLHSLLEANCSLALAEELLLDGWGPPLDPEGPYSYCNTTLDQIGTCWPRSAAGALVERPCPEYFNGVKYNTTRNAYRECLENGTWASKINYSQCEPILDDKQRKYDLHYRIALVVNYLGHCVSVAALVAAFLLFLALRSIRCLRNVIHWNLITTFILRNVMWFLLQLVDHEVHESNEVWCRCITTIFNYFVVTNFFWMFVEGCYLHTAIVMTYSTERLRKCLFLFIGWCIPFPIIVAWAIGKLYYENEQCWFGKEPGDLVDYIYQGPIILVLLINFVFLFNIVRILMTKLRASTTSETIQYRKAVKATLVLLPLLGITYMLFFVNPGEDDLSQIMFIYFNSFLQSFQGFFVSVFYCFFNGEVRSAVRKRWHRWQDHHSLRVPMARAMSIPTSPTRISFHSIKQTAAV
T1 sequence (P24387 whole entry): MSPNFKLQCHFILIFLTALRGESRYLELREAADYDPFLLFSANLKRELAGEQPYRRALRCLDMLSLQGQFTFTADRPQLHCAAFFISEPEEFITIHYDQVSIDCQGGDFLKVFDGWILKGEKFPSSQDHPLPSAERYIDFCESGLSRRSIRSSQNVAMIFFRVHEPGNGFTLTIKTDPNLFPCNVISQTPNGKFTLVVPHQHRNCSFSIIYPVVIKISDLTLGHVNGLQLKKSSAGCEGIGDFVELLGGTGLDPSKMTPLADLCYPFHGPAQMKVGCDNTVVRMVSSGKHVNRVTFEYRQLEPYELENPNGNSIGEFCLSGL

[6] = target: T1, Corticotropin-releasing factor receptor 2/Corticotropin-releasing factor-binding protein; assay: Dose Response confirmation of uHTS hits for small molecule antagonists of the CRF-binding protein and CRF-R2 receptor complex.; type: functional; conditions: read-out: IC50_Mean
[7] = system: H9c2; assay: cells; type: functional, cell-based; conditions: Rattus norvegicus, H9c2, Myocardium;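 also: confirmatory concentration-response retest of ultra-high-throughput screening hits for modulation of myocardial damage; cell death induced by hydrogen peroxide oxidative stress; compound pretreatment for 60 min then peroxide exposure for 2 h; potency is for protecting the cells against peroxide damage rather than for killing them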
[8] = system: H4; assay: Luminescence Cell-Based Dose Response HTS to Identify Activators of 5'UTR Stem-Loop Driven Prion Protein mRNA Translation in H4 Neuroglioblastoma Cells. [Related pubchem assays: 1829 (Project Summary), 1814 (Primary HTS)]; type: functional; conditions: Homo sapiens
[9] = Luminescence Cell-Based Dose Response HTS to Identify Activators of Luciferase Translation or Activity in H4 […] Cells. [Related pubchem assays: 1829 (Project Summary), 1814 (Primary HTS)]; type: functional
[10] = Luminescence Cell-Based Dose Confirmation HTS to Identify Activators of 5'UTR Stem-Loop Driven Alpha-Synuclein mRNA Translation in H4 Neuroglioblastoma Cells. [Related pubchem assays: 1829 (Project Summary), 1814 (Primary HTS)]; type: functional
[11] = HEp-2 cell cytotoxicity, dose response, cytotoxicity control for RSV inhibitor project, HTS (AID 2410); type: functional; conditions: human respiratory syncytial virus
[12] = target: T2, Streptokinase A (Streptococcus pyogenes serotype M1, UniProt P10520); assay: S. pyogenes streptokinase expression inhibitors, potency, dose response, plasminogen activation absorbance, OD405 (AID 1914); type: functional, Streptococcus pyogenes M1 GAS;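 also: secreted streptokinase activity via plasminogen activation per viability signal from cell pellet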
T2 sequence (P10520 whole entry): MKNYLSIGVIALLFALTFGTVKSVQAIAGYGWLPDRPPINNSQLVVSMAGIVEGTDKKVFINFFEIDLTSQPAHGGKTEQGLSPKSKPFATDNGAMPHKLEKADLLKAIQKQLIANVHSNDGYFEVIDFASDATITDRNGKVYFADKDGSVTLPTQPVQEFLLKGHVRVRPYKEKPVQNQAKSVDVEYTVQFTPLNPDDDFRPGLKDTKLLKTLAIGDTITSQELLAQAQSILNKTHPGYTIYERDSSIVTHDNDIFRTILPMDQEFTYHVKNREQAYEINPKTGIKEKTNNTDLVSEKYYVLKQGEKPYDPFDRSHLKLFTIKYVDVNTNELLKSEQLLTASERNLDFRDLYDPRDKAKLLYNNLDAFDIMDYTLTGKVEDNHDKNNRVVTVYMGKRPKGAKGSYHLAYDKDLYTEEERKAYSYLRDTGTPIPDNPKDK

[13] = system: Streptococcus sp. 'group A'; assay: growth inhibition of control SK(-) GAS strain, dose response, counter-screen for streptokinase expression inhibitor project, luminescence, kanamycin, BacTiterGlo, confirmation (AID 1900); type: functional, organism-based
[14] = system: Streptococcus; assay: Group A Streptococcus viability loss, dose response, counter-screen for streptokinase expression inhibitor project, luminescence, BacTiterGlo (AID 1915); type: functional, organism-based;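 also: potency for reduction of bacterial viability or growth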
[15] = target: T3, Protein RecA (Mycobacterium tuberculosis, UniProt P9WHJ3); assay: Fluorescence Cell-Free Homogeneous Dose Retest to Identify Inhibitors of RecA-Intein Splicing Activity. [Related pubchem assays (depositor defined):AID2097, AID2223, AID489010, AID492950]; type: functional
T3 sequence (P9WHJ3 whole entry): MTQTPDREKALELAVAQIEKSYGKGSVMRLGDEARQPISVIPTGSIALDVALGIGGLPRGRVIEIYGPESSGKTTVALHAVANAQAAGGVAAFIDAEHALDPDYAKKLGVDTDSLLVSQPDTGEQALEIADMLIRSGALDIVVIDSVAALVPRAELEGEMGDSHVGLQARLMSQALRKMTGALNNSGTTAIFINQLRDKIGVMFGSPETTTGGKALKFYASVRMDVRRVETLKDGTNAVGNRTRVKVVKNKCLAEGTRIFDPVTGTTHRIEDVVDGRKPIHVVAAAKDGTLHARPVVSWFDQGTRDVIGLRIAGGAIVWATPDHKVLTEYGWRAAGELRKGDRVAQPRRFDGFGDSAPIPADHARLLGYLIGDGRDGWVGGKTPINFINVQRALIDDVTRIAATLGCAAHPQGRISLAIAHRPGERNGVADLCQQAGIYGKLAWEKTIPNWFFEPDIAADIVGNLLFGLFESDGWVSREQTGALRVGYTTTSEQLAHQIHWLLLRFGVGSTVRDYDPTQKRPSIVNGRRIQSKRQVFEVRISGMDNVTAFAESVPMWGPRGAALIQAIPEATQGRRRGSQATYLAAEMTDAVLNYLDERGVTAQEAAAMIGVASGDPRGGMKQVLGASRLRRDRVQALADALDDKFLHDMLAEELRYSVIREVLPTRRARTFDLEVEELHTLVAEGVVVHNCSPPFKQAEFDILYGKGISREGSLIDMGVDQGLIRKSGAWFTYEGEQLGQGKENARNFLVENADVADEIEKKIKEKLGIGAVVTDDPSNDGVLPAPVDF

[16] = target: T4, Fatty acid synthase (Homo sapiens, UniProt P49327); assay: FAS thioesterase domain inhibitors, dose response, biochemical, endpoint fluorescence intensity, uHTS hits (AID 624327); type: functional;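 also: fluorescence from hydrolysis of an O-methyl fluorescein acyl ester substrate by the enzyme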
T4 sequence (P49327 whole entry, the tested form may be a part): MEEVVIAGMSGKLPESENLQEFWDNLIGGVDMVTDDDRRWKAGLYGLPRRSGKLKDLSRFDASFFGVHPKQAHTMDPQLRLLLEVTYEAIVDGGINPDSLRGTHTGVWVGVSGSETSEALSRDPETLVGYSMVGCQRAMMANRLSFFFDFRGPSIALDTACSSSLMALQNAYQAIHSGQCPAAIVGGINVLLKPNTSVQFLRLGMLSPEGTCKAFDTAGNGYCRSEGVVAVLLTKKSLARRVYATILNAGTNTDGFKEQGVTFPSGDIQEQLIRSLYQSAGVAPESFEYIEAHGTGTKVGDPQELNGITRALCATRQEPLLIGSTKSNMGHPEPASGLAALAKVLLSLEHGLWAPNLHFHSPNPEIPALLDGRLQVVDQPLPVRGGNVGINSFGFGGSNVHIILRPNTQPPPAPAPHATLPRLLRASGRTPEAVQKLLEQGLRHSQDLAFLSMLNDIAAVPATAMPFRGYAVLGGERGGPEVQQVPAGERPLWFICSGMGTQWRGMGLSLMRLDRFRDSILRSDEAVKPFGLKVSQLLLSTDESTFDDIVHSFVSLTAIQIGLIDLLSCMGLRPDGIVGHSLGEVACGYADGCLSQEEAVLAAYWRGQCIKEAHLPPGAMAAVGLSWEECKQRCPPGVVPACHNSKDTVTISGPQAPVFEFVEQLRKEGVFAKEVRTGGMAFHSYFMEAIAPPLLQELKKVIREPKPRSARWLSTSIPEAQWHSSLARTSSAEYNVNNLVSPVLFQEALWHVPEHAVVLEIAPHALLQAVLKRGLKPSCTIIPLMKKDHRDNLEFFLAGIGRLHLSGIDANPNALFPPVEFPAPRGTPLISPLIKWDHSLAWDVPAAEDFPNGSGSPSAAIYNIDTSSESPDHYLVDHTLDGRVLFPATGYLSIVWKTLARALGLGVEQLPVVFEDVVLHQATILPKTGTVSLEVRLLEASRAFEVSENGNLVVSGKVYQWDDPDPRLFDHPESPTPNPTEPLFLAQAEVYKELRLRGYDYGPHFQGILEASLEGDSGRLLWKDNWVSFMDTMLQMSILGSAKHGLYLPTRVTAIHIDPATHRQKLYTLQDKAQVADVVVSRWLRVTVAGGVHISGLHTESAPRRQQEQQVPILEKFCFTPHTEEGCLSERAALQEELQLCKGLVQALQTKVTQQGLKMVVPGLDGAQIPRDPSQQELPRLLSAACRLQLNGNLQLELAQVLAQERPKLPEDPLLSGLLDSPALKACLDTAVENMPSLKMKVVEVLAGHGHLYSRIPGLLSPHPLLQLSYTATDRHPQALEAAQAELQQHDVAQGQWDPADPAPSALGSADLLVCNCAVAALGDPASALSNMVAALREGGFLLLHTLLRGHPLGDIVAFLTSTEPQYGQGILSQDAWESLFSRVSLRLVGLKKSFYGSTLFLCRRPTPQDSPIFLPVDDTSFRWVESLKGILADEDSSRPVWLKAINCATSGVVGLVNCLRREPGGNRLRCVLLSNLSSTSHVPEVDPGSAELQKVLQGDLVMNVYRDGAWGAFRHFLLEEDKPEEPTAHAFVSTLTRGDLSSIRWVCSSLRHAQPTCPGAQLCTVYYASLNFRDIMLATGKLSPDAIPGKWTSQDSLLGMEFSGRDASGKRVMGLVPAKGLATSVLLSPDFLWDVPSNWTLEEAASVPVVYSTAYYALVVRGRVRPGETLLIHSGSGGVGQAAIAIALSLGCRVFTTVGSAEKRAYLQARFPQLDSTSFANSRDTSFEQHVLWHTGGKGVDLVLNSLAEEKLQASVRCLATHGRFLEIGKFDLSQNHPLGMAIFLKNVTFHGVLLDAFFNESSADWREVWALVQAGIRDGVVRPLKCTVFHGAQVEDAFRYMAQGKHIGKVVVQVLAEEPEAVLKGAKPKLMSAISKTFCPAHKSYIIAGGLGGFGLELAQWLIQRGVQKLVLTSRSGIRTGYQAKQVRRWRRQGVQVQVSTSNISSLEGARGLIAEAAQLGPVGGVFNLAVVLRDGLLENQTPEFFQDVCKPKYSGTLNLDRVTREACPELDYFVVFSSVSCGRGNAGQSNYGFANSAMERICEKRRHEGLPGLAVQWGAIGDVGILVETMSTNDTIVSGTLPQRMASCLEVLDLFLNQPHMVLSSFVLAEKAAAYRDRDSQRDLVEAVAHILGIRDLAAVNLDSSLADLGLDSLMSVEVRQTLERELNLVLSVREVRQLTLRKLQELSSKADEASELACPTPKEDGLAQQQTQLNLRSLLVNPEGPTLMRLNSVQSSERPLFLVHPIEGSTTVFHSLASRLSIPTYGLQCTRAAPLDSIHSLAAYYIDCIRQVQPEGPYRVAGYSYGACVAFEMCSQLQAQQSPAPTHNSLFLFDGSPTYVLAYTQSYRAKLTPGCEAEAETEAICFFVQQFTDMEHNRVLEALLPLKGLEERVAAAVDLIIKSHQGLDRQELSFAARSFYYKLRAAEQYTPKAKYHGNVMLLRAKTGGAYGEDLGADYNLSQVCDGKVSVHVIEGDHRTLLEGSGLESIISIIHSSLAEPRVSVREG

[17] = target: T4, Fatty acid synthase; assay: FAS thioesterase domain inhibitors, dose response, biochemical, kinetic fluorescence intensity (AID 624326); type: functional;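 also: rate of fluorescence rise from hydrolysis of a fluorogenic O-methyl fluorescein ester substrate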

FC(F)(F)c1nc2ccccc2n2c(-c3ccc(Cl)cc3)nnc12
AC50 [1]: 6.4 µM (active)
EC50 [2]: 9.07 µM (active)
EC50 [3]: 9.21 µM (active)
EC50 [4]: 8.92 µM (active)

COC(=O)c1ccc(OCC(O)CN2C(=O)c3ccccc3S2(=O)=O)cc1 (configuration not stated)
EC50 [5]: > 53 µM (inactive)
IC50 [6]: > 47.1 µM (inactive)

COc1ccc(-c2nn(-c3ccccc3)cc2C(=O)OCC(=O)c2ccc(C)c([N+](=O)[O-])c2)cc1
AC50 [1]: 0.97 µM (active)

COc1cccc(-c2nnc3sc(-c4ccccn4)nn23)c1
IC50 [7]: > 79 µM (inactive)

O=C(CCc1nc(O)c2ccccc2n1)Nc1nc(-c2cccs2)cs1
IC50 [7]: 17.3 µM (active)
EC50 [8]: 104 µM (inconclusive)
EC50 [9]: 15.8 µM (active)
EC50 [10]: 12.5 µM (active)

Oc1nc2c(c3c1CCCC3)CCCC2
IC50 [7]: > 79 µM (inactive)

CC1CN(c2ccc([N+](=O)[O-])cc2C#N)CC(C)O1 (configuration not stated)
CC50 [11]: 34.9 µM (active)

O=C(COC(=O)c1cc(-c2cccnc2)nc2ccccc12)Nc1ccc(F)cc1F
IC50 [7]: 13.8 µM (active)

Cc1cccc(NC(=O)c2cc(-c3ccco3)nc3ccccc23)n1
IC50 [7]: > 79 µM (inactive)

O=C(NC(=S)N1CCN(C(c2ccccc2)c2ccccc2)CC1)c1ccc(S(=O)(=O)N2CCOCC2)cc1
EC50 [12]: > 150 µM (not active)
EC50 [13]: 1.14 µM (active)
EC50 [14]: 108 µM (active)

CC(C)(C)c1ccc(Cn2ccc(-c3ccc4c(c3)OCO4)n2)cc1
EC50 [12]: > 150 µM (not active)
EC50 [13]: 9.62 µM (active)
EC50 [14]: 79.9 µM (active)

CC[C@@]12C(=O)N(c3cccc(Br)c3)C(=O)N1[C@H](c1ccc(F)cc1)[C@@H]1C(=O)N(C3CCCCC3)C(=O)[C@@H]12
CC50 [11]: 41.1 µM (active)

CC(C)(C)C(=O)N1N=C(c2ccc(NS(C)(=O)=O)cc2)CC1c1cccs1 (configuration not stated)
EC50 [12]: > 150 µM (not active)
EC50 [13]: 6.62 µM (active)
EC50 [14]: 12.4 µM (active)

Cc1noc(/C=C/N(C)C)c1S(=O)(=O)N1CCC(C(=O)Nc2ccc(Cl)cc2)CC1
EC50 [5]: > 53 µM (inactive)
IC50 [6]: > 47.1 µM (inactive)

COc1ccc(-c2[nH]c(-c3ccc(C)cc3)nc2SCC(=O)NC2CCCC2)cc1
CC50 [11]: 38.9 µM (active)

Cc1cc(C)n(-c2nc(NCCO)c3c4c(sc3n2)CCCC4)n1
AC50 [1]: 5.3 µM (active)

O=C(CSc1ccc(-c2ccc(Cl)cc2)nn1)NC1CCCC1
EC50 [12]: > 150 µM (not active)
EC50 [13]: > 150 µM (not active)
EC50 [14]: > 150 µM (not active)

COc1ccccc1NC(=O)CSc1ccc2nnc(-c3ccc(C)cc3)n2n1
IC50 [7]: > 79 µM (inactive)

COc1cc(OC)c(NC(=O)c2sc3ncn(CC(=O)N4CCN(c5ccccn5)CC4)c(=O)c3c2C)cc1Cl
EC50 [12]: > 150 µM (not active)
EC50 [13]: 11.6 µM (active)
EC50 [14]: 86.6 µM (active)

CCOC(=O)N1CCC(n2c(SCC(=O)N3CCC(C)CC3)nc3ccccc3c2=O)CC1
IC50 [7]: > 79 µM (inactive)

O=C(/C=C/c1cccs1)c1cc(Br)ccc1OC(=O)N1CCOCC1
CC50 [11]: 18.7 µM (active)

CCc1ccc(/C=C2\SC(N3CCCC3)=NC2=O)cc1
CC50 [11]: > 50 µM (active)

COc1cc(OC)cc(C(=O)NC2CC3CCC(C2)N3Cc2ccco2)c1 (configuration not stated)
EC50 [5]: > 53 µM (inactive)
IC50 [6]: > 47.1 µM (inactive)

Cc1[nH]c2ccccc2c1N=Nc1ccc(F)cc1
CC50 [11]: 17.2 µM (active)

C[C@@H](C(=O)Nc1ccc2ccccc2c1)[C@H]1C[C@]1(C)[C@H](NS(=O)(=O)c1ccccc1)c1ccccc1
CC50 [11]: 36.4 µM (active)

COc1cc(CCNc2ccc3nnc(-c4ccccc4)n3n2)cc(OC)c1OC
IC50 [7]: > 79 µM (inactive)

COc1ccc(/C=C/C(=O)c2ccccc2O)cc1CN1CCOCC1
IC50 [7]: > 79 µM (inactive)

Cc1ccc2nc(-c3ccccc3)cc(C(=O)NNC(=O)c3csc(N4CCOCC4)n3)c2c1
IC50 [7]: > 79 µM (inactive)

CCCC(=O)Nc1sc2c(c1C(=O)OC)C(C(=O)OC)CC2 (configuration not stated)
CC50 [11]: 31.6 µM (active)

CCC(=O)Nc1ccc(Nc2nc(C)c([N+](=O)[O-])c(Nc3ccc(NC(=O)CC)cc3)n2)cc1
EC50 [12]: > 150 µM (not active)
EC50 [13]: 0.487 µM (active)
EC50 [14]: 49.3 µM (active)

C=CCCC(=O)N1CCC(n2nccc2NC(=O)c2ccc(OC)cc2)CC1
EC50 [5]: > 53 µM (inactive)
IC50 [6]: > 47.1 µM (inactive)

CC(=O)c1c(C)n(-c2cccc(Cl)c2)c2ccc(O)cc12
IC50 [7]: 10.4 µM (active)

C=CCN1C(=O)NC(=O)/C(=C(/CC)NCc2ccc3c(c2)OCO3)C1=O
EC50 [5]: > 53 µM (inactive)
IC50 [6]: > 47.1 µM (inactive)

COc1ccc(C(C(=O)NCc2ccccc2)N(Cc2ccco2)C(=O)c2snc(C(N)=O)c2N)cc1 (configuration not stated)
IC50 [7]: > 79 µM (inactive)

COc1ccc(/C=N/NC(=O)c2cc(C(C)(C)C)[nH]n2)cc1COc1ccc(F)cc1F
EC50 [12]: > 150 µM (not active)
EC50 [13]: 6.95 µM (active)
EC50 [14]: 11.7 µM (active)

CCOC(=O)c1ccc(NC(=O)CC2SC(N/N=C/c3c[nH]c4ccccc34)=NC2=O)cc1 (configuration not stated)
EC50 [12]: > 150 µM (not active)
EC50 [13]: 3.35 µM (active)
EC50 [14]: > 150 µM (not active)

Cc1[nH]c2ccccc2c1/C=N/NC(=O)c1cc(-c2cccs2)[nH]n1
IC50 [7]: > 79 µM (inactive)

Cc1ccccc1/N=C1\C(Cl)=C(O)OC1OC(=O)c1ccco1 (configuration not stated)
EC50 [15]: 11.4 µM (active)
IC50 [16]: 3.24 µM (active)
IC50 [17]: 4.35 µM (active)
